Measurements from PubChem BioAssay AID2060903 (Molecular Pharmacology Branch, DTP, NCI, 2025).

Tested on: 377384-186-R-J1-PDC complex spheroid viability
Assay: Anticancer human tumor 377384-186-R-J1-PDC patient-derived pancreatic carcinoma cell line growth inhibition [RAS]
Settings: for IC50: curve of first compound; for viability, T/C: stronger effect = lower value
In short: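 Multi-cell-type spheroids: tumor cells plus HUVEC endothelial cells and mesenchymal stem cells. RAS-pathway inhibitors were combined with targeted agents, each dosed in half-log steps down from clinical Cmax, or from 10 microM when Cmax was unknown.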

[1] = second compound 0.000949 µM, first compound 0.0316 µM
[2] = second compound 0.000949 µM, first compound 0.1 µM
[3] = second compound 0.000949 µM, first compound 0.316 µM
[4] = second compound 0.000949 µM, first compound 1 µM
[5] = second compound 0.003 µM, first compound 0.0316 µM
[6] = second compound 0.003 µM, first compound 0.1 µM
[7] = second compound 0.003 µM, first compound 0.316 µM
[8] = second compound 0.003 µM, first compound 1 µM
[9] = second compound 0.00949 µM, first compound 0.0316 µM
[10] = second compound 0.00949 µM, first compound 0.1 µM
[11] = second compound 0.00949 µM, first compound 0.316 µM
[12] = second compound 0.00949 µM, first compound 1 µM
[13] = second compound 0.03 µM, first compound 0.0316 µM
[14] = second compound 0.03 µM, first compound 0.1 µM
[15] = second compound 0.03 µM, first compound 0.316 µM
[16] = second compound 0.03 µM, first compound 1 µM
[17] = second compound 0.0949 µM, first compound 0.0316 µM
[18] = second compound 0.0949 µM, first compound 0.1 µM
[19] = second compound 0.0949 µM, first compound 0.316 µM
[20] = second compound 0.0949 µM, first compound 1 µM
[21] = second compound 0.3 µM, first compound 0.0316 µM
[22] = second compound 0.3 µM, first compound 0.1 µM
[23] = second compound 0.3 µM, first compound 0.316 µM
[24] = second compound 0.3 µM, first compound 1 µM
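Note: spheroids exposed to compounds for seven days before readout.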

## Nc1ccn(C2OC(CO)C(O)C2(F)F)c(=O)n1 (centres undefined) + CCn1c(-c2cccnc2C(C)OC)c2c3cc(ccc31)N1CCOC(CC(NC(=O)C(C(C)C)N(C)C(=O)C3(F)CCN(C(=O)C#CC(C)(C)N(C)C)CC3)C(=O)N3CCCC(N3)C(=O)OCC(C)(C)C2)C1
Second compound 0.000949 µM
  IC50: 11.3 nM
Second compound 0.003 µM
  IC50: 9.69 nM
Second compound 0.00949 µM
  IC50: 12.6 nM
Second compound 0.03 µM
  IC50: 11.8 nM
Second compound 0.0949 µM
  IC50: 9.29 nM
Second compound 0.3 µM
  IC50: 7.06 nM
Second compound 0.000949 µM, first compound 0.00316 µM
  viability, T/C: 87.1%
Second compound 0.000949 µM, first compound 0.01 µM
  viability, T/C: 53.8%
[1]
  viability, T/C: 19.4%
[2]
  viability, T/C: 7.57%
[3]
  viability, T/C: 5.68%
[4]
  viability, T/C: 3.18%
Second compound 0.003 µM, first compound 0.00316 µM
  viability, T/C: 94.7%
Second compound 0.003 µM, first compound 0.01 µM
  viability, T/C: 48.4%
[5]
  viability, T/C: 23.4%
[6]
  viability, T/C: 9.1%
[7]
  viability, T/C: 4.5%
[8]
  viability, T/C: 3.68%
Second compound 0.00949 µM, first compound 0.00316 µM
  viability, T/C: 96.1%
Second compound 0.00949 µM, first compound 0.01 µM
  viability, T/C: 57.7%
[9]
  viability, T/C: 19.2%
[10]
  viability, T/C: 8.08%
[11]
  viability, T/C: 5.38%
[12]
  viability, T/C: 4.57%
Second compound 0.03 µM, first compound 0.00316 µM
  viability, T/C: 90.9%
Second compound 0.03 µM, first compound 0.01 µM
  viability, T/C: 55.3%
[13]
  viability, T/C: 17.6%
[14]
  viability, T/C: 5.8%
[15]
  viability, T/C: 5.88%
[16]
  viability, T/C: 3.65%
Second compound 0.0949 µM, first compound 0.00316 µM
  viability, T/C: 79.1%
Second compound 0.0949 µM, first compound 0.01 µM
  viability, T/C: 47.8%
[17]
  viability, T/C: 20.1%
[18]
  viability, T/C: 7.12%
[19]
  viability, T/C: 4.37%
[20]
  viability, T/C: 4.2%
Second compound 0.3 µM, first compound 0.00316 µM
  viability, T/C: 71.9%
Second compound 0.3 µM, first compound 0.01 µM
  viability, T/C: 40.6%
[21]
  viability, T/C: 13%
[22]
  viability, T/C: 5.77%
[23]
  viability, T/C: 4.01%
[24]
  viability, T/C: 3.34%

## CCn1c(-c2cc(N3CCN(C)CC3)cnc2C(C)OC)c2c3cc(ccc31)-c1csc(n1)CC(NC(=O)C1CC1C)C(=O)N1CCCC(N1)C(=O)OCC(C)(C)C2 (centres undefined)
Compound 0.000949 µM
  viability, T/C: 51.8% [middle of 8 runs]
Compound 0.003 µM
  viability, T/C: 21.4% [middle of 8 runs]
Compound 0.00949 µM
  viability, T/C: 5.65% [middle of 8 runs]
Compound 0.03 µM
  viability, T/C: 2.68% [middle of 8 runs]
Compound 0.0949 µM
  viability, T/C: 2.25% [middle of 8 runs]
Compound 0.3 µM
  viability, T/C: 1.95% [middle of 7 runs]

## CC(C)n1nc(-c2ccc3oc(N)nc3c2)c2c(N)ncnc21
Compound 0.001 µM
  viability, T/C: 80.6% [middle of 4 runs]
Compound 0.00316 µM
  viability, T/C: 69% [middle of 4 runs]
Compound 0.01 µM
  viability, T/C: 61.9% [middle of 4 runs]
Compound 0.0316 µM
  viability, T/C: 34.8% [middle of 4 runs]

## CC(Nc1ccc2c(c1)OCCn1cc(N3C(=O)OCC3C(F)F)nc1-2)C(N)=O (centres undefined) + CCn1c(-c2cccnc2C(C)OC)c2c3cc(ccc31)N1CCOC(CC(NC(=O)C(C(C)C)N(C)C(=O)C3(F)CCN(C(=O)C#CC(C)(C)N(C)C)CC3)C(=O)N3CCCC(N3)C(=O)OCC(C)(C)C2)C1
Second compound 0.000949 µM
  IC50: 650 nM
Second compound 0.003 µM
  IC50: 716 nM
Second compound 0.00949 µM
  IC50: 453 nM
Second compound 0.03 µM
  IC50: 510 nM
Second compound 0.0949 µM
  IC50: 280 nM
Second compound 0.3 µM
  IC50: 132 nM
[1]
  viability, T/C: 86.7%
[2]
  viability, T/C: 68.8%
[3]
  viability, T/C: 56.5%
[4]
  viability, T/C: 48%
Second compound 0.000949 µM, first compound 3.16 µM
  viability, T/C: 34%
Second compound 0.000949 µM, first compound 10 µM
  viability, T/C: 26.5%
[5]
  viability, T/C: 94.1%
[6]
  viability, T/C: 74.7%
[7]
  viability, T/C: 57.7%
[8]
  viability, T/C: 47.2%
Second compound 0.003 µM, first compound 3.16 µM
  viability, T/C: 35.6%
Second compound 0.003 µM, first compound 10 µM
  viability, T/C: 23.1%
[9]
  viability, T/C: 92.5%
[10]
  viability, T/C: 70%
[11]
  viability, T/C: 53.3%
[12]
  viability, T/C: 39.6%
Second compound 0.00949 µM, first compound 3.16 µM
  viability, T/C: 39.2%
Second compound 0.00949 µM, first compound 10 µM
  viability, T/C: 26.7%
[13]
  viability, T/C: 87.2%
[14]
  viability, T/C: 72.3%
[15]
  viability, T/C: 55.3%
[16]
  viability, T/C: 40.8%
Second compound 0.03 µM, first compound 3.16 µM
  viability, T/C: 36.6%
Second compound 0.03 µM, first compound 10 µM
  viability, T/C: 28.1%
[17]
  viability, T/C: 72.9%
[18]
  viability, T/C: 57.2%
[19]
  viability, T/C: 49.2%
[20]
  viability, T/C: 38.4%
Second compound 0.0949 µM, first compound 3.16 µM
  viability, T/C: 37.5%
Second compound 0.0949 µM, first compound 10 µM
  viability, T/C: 24.9%
[21]
  viability, T/C: 70.3%
[22]
  viability, T/C: 54.4%
[23]
  viability, T/C: 35.8%
[24]
  viability, T/C: 38%
Second compound 0.3 µM, first compound 3.16 µM
  viability, T/C: 30.1%
Second compound 0.3 µM, first compound 10 µM
  viability, T/C: 25%
